Key:
Type in all cases: cell-based
Nocardia asteroides = assay: MIC on mass basis (Example V procedure)
Description: (§1) The essential procedure of Example I was followed with a series of phenolic compounds, with the exception that the test method was conducted on a mass (μg/ml) basis rather than a molecular (mol/ml) basis of the foregoing tests, since the long established phenol-coeffecient test is on a mass rather than molecular basis. Additionally, a different but closely related group of organisms were used in this test, in order to give a complete representative span on gram-negative, gram-positive and fungus organisms. Additionally, the phenolic derivatives chosen for test purposes include a number of derivatives which are presently accepted by the FDA as food-grade phenolic microbicides.
(§2) The same procedure of Example V was repeated but with combinations of mono-laurin (GML).
(§3) The procedure of Example V was repeated with combinations of glycerol mono-laurin (GML) and ethylenediamine tetraacetic acid (EDTA) as the calcium salt and in combination with BHA.

Pseudomonas aeruginosa = assay: MIC on mass basis (Example V procedure)
Description: as §1, §2, §3

Staphylococcus aureus = assay: MIC on mass basis (Example V procedure)
Description: as §1, §2, §3

Escherichia coli = assay: MIC on mass basis (Example V procedure)
Description: as §1, §2, §3

Streptococcus agalactiae = assay: MIC on mass basis (Example V procedure)
Description: as §1, §2, §3

Saccharomyces cerevisiae = assay: MIC on mass basis (Example V procedure)
Description: as §1, §2, §3

Candida albicans = assay: MIC on mass basis (Example V procedure)
Description: as §1, §2, §3

[1] = tested on: nine gram-positive organisms and the yeast/fungus Candida; assay: MIC, broth dilution, over all organisms (Examples I/II); details: all except streptococcus Group D; from essentially as active up to
Description: In order to establish comparative bactericidal and fungicidal results with homologous fatty acids, a series of experiments was performed with thirty straight-chain fatty acids and derivatives thereof. Eight different gram-negative and twelve different gram-positive organisms, representing a very broad spectrum of organisms, were used in these experiments including the fungus Candida (a yeast). Additionally, fatty acids were chosen to show the effects of saturation versus unsaturation, in the fatty acid claim. Standard solutions of the fatty acids and their derivatives were prepared by first dissolving the weighed compounds in 1 to 2 ml of 95% ethanol and immediately pouring this solution into 200 ml of Tripticase Soy Broth. These lipid compounds which are insoluble in water and broth precipitated into very small crystals or droplets. The tubes containing the suspension were warmed to approximately 70° C and were then placed in an ultrasonic tank for further solubilization of the lipid derivatives.
Standard solutions (or suspensions) at 1,000 μg/ml were twofold serially diluted with additional broth to a concentration of 125 μg/ml. A 4-ml amount of each dilution was then quickly, and with constant agitation, dispensed into appropriately labeled screw-capped glass tubes (16 by 125 mm). The tubes were sterilized with steam at 15 psi for 15 minutes. After sterilization, all tubes were cooled and incubated overnight at 35° C to insure sterility.
All compounds were compared on a molar (micromoles/milliliter) rather than on a mass basis. In the following lists of organisms used, those followed by a parenthetical number are registered with the American Type Culture Collection (ATCC); the remainder were isolates from Providence Hospital or Northland Laboratory.
Staphylococcus aureus, S. epidermidis, beta-hemolytic streptococci (Group A and non-group A), group D streptococcus, Bacillus subtilis (6051), Sarcina lutea (9431), Micrococcus sp., Candida albicans, Nocardia asteroids (3308), Corynebacterium sp. (10700), and pneumococcus (63001).
One drop (0.04 ± 0.01 ml) of an 18-hr broth culture containing 10^7 and 10^9 organisms/ml was added to each dilution of the test compound, as well as to a tube of plain broth which served as the positive control. After inoculation, the contents of each tube were well mixed, and the tubes were incubated at 35° C in a 5% carbon dioxide + […] atmosphere.
The MIC is defined as the lowest concentration of compound at which no […] evidence of growth was observed when turbidity of the inoculated broth dilutions was compared with control tubes. […] Only a one-tube difference between the bactericidal and bacteriostatic concentrations was normally observed.
Table 5 presents a comparison of the C10 and C12 free acids and their glyceryl derivatives, and Table 6 gives the corresponding ranges of activity.
Standard solutions (1000 μg/ml) of three fatty acids and polyglycerol esters thereof were prepared as described in Example I. Also sucrose esters were prepared by transferring the weighed compounds (0.2 gm. dissolved in 1 ml absolute methanol) into 200 ml of sterile Trypticase Soy Broth (TSB). These standard solutions (1000 μg/ml) were twofold serially diluted with additional sterile broth to a concentration of 125 μg/ml. A 3.8 aliquot of each dilution was asceptically delivered into sterile screw-capped culture tubes. All tubes were incubated overnight at 36° C to insure sterility. The microorganisms used in this example were the same as those used in Example I.
The inoculum, 0.05 ml of an 13-24 hour TSB culture (approximately 10^9 organisms/ml) was asceptically delivered into all dilutions of the compounds, mixed well, and incubated at 36° C. […]

CCCCCCCCCCCC(=O)OCC(O)CO (stereo not drawn) [GML, glycerol mono-laurin]
100 µg/mL: MIC of GML (Nocardia asteroides; Table 17, EDTA 125) | MIC of GML (Pseudomonas aeruginosa; Table 17, EDTA 5,000) | MIC of GML (Staphylococcus aureus; Table 17, EDTA 1,000) | MIC of GML (Saccharomyces cerevisiae; Table 17, EDTA 250) | MIC of GML (Saccharomyces cerevisiae; Table 17, EDTA 500) | MIC of GML (Candida albicans; Table 17, EDTA 500) | MIC of GML (Candida albicans; Table 17, EDTA 1,000) | MIC of GML (Candida albicans; Table 17, EDTA 5,000) | MIC of GML (Candida albicans; Table 17, EDTA 10,000)
≤ 5.5 times: Activity of mono-laurin relative to mono-capric [1]
500 µg/mL: MIC of GML (Staphylococcus aureus; Table 17, EDTA 500) | MIC of GML (Saccharomyces cerevisiae; Table 17, EDTA 125) | MIC of GML (Candida albicans; Table 17, EDTA 125) | MIC of GML (Candida albicans; Table 17, EDTA 250)
7.80 µg/mL: MIC (Nocardia asteroides; Table 14, Nocardia asteroides)
> 1,000 μg/ml: MIC (Pseudomonas aeruginosa; Table 13, Pseudomonas aeruginosa) | MIC (Pseudomonas aeruginosa; Table 14, Pseudomonas aeruginosa) | MIC (Escherichia coli; Table 13, Escherichia coli) | MIC (Escherichia coli; Table 14, Escherichia coli) | MIC (Candida albicans; Table 13, Candida albicans) | MIC (Candida albicans; Table 14, Candida albicans)
1,000: MIC (Staphylococcus aureus; Table 16, Staphylococcus aureus, no unit in table) | MIC (Saccharomyces cerevisiae; Table 16, Saccharomyces cerevisiae, no unit in table)
< 1,000 μg/ml: MIC (Saccharomyces cerevisiae; Table 13, Saccharomyces cerevisiae)
1,000 μg/ml: MIC of GML (Staphylococcus aureus; Table 17, EDTA 0) | MIC of GML (Staphylococcus aureus; Table 17, EDTA 125) | MIC of GML (Staphylococcus aureus; Table 17, EDTA 250) | MIC (Saccharomyces cerevisiae; Table 14, Saccharomyces cerevisiae) | MIC of GML (Saccharomyces cerevisiae; Table 17, EDTA 0)
> 10,000 μg/ml: MIC of GML (Pseudomonas aeruginosa; Table 17, EDTA 0) | MIC of GML (Pseudomonas aeruginosa; Table 17, EDTA 125) | MIC of GML (Pseudomonas aeruginosa; Table 17, EDTA 250) | MIC of GML (Pseudomonas aeruginosa; Table 17, EDTA 500) | MIC of GML (Pseudomonas aeruginosa; Table 17, EDTA 1,000) | MIC of GML (Escherichia coli; Table 17, EDTA 0) | MIC of GML (Escherichia coli; Table 17, EDTA 125) | MIC of GML (Escherichia coli; Table 17, EDTA 250) | MIC of GML (Escherichia coli; Table 17, EDTA 500) | MIC of GML (Escherichia coli; Table 17, EDTA 1,000) | MIC of GML (Escherichia coli; Table 17, EDTA 5,000) | MIC of GML (Escherichia coli; Table 17, EDTA 10,000) | MIC of GML (Candida albicans; Table 17, EDTA 0)
15.60 µg/mL: MIC (Nocardia asteroides; Table 13, Nocardia asteroides) | MIC (Streptococcus agalactiae; Table 13, Streptococcus agalactiae)
< 10 µg/mL: MIC of GML (Nocardia asteroides; Table 17, EDTA 0) | MIC of GML (Nocardia asteroides; Table 17, EDTA 250) | MIC of GML (Nocardia asteroides; Table 17, EDTA 500) | MIC of GML (Nocardia asteroides; Table 17, EDTA 1,000) | MIC of GML (Nocardia asteroides; Table 17, EDTA 5,000) | MIC of GML (Nocardia asteroides; Table 17, EDTA 10,000) | MIC of GML (Pseudomonas aeruginosa; Table 17, EDTA 10,000) | MIC of GML (Staphylococcus aureus; Table 17, EDTA 5,000) | MIC of GML (Staphylococcus aureus; Table 17, EDTA 10,000) | MIC of GML (Saccharomyces cerevisiae; Table 17, EDTA 1,000) | MIC of GML (Saccharomyces cerevisiae; Table 17, EDTA 5,000) | MIC of GML (Saccharomyces cerevisiae; Table 17, EDTA 10,000)
31.25 µg/mL: MIC (Staphylococcus aureus; Table 13, Staphylococcus aureus) | MIC (Staphylococcus aureus; Table 14, Staphylococcus aureus) | MIC (Streptococcus agalactiae; Table 14, Streptococcus agalactiae)
> 1,000: MIC (Pseudomonas aeruginosa; Table 16, Pseudomonas aeruginosa, no unit in table) | MIC (Escherichia coli; Table 16, Escherichia coli, no unit in table (Example 5 procedure, mass basis)) | MIC (Candida albicans; Table 16, Candida albicans, no unit in table)
10: MIC (Nocardia asteroides; Table 16, Nocardia asteroides, no unit in table)
